Read-outs that look alike come from different tables or passages of the source.
Tested on: subjects with metastatic or surgically unresectable urothelial cancer
Experimental: Study treatment was administered on 28-day cycles. […] Patients were randomized 1:1 to 28-day cycles to the following 2 regimens until a regimen was selected for further study: Regimen 1 (10 mg once daily intermittent (7 days on/7 days); Regimen 2 (6 mg once daily continuous). Randomization was stratified according to performance status (0 to 1 vs. 2), hemoglobin value (<10 vs. ≥10 g per dl), FGFR alteration type (mutation vs. fusion), prior treatment status (chemotherapy-resistant vs. chemotherapy naïve), and disease distribution (presence or absence of visceral [liver, lung, bone]metastases). Starting dose selection was based on phase 1 efficacy and tolerability.
Based on interim analysis and pharmacokinetic-pharmacodynamic modeling of serum phosphate levels, starting dose was increased to 8 mg per day continuous (Regimen 3). Thus, after interim analysis, this became a single-arm study. […] Treatment continued until disease progression or unacceptable adverse event(s) per investigator.
Safety was evaluated based on clinical laboratory tests, physical exams, electrocardiograms, and ophthalmology examinations. Adverse events and abnormalities were assessed by investigator and graded per NCI CTCAE v.4.0
Prophylactic measures were taken to minimize risk of common adverse events related to FGFR inhibition. To reduce risk of hyperphosphatemia, a low-phosphate diet was recommended for all patients (600 to 800 mg of dietary phosphate intake per day). To reduce the risk of skin effects, the application of alcohol-free emollient moisturizing cream and avoidance of unnecessary exposure to sunlight, soap, perfumed products, and hot baths was recommended. Patients were asked to keep their fingers and toes clean and nails trimmed to reduce risk of nail effects.
Additional ophthalmology examinations were performed if clinically indicated.

## COc1cc(OC)cc(N(CCNC(C)C)c2ccc3ncc(-c4cnn(C)c4)nc3c2)c1 [erdafitinib, N-(3,5-dimethoxy-phenyl)-N′-(1-methylethyl)-N-[3-(1-methyl-1H-pyrazol-4-yl)quinoxalin-6-yl]ethane-1,2-diamine]
6 mg continuous, n = 78
  Serious treatment-emergent: Dyspnea: 1 (1) no. (%)
  Serious treatment-emergent: Eye disorders: 3 (4) no. (%)
  Serious treatment-emergent: Gastrointestinal disorders: 8 (10) no. (%)
  Serious treatment-emergent: Infections and infestations: 13 (17) no. (%)
  Serious treatment-emergent: Metabolism and nutrition disorders: 3 (4) no. (%)
  Serious treatment-emergent: Nervous system disorders: 5 (6) no. (%)
  Serious treatment-emergent: Renal and urinary disorders: 5 (6) no. (%)
  Serious treatment-emergent: Respiratory, thoracic, mediastinal disorders: 3 (4) no. (%)
  Serious treatment-emergent: Urinary tract infection: 4 (5) no. (%)
  Serious treatment-emergent: Urosepsis: 3 (4) no. (%)
  Total number of patients with serious treatment-emergent adverse events: 39 (50) no. (%)
8 mg continuous, n = 99
  Serious treatment-emergent: Dyspnea: 2 (2) no. (%)
  Serious treatment-emergent: Eye disorders: 9 (9) no. (%)
  Serious treatment-emergent: Gastrointestinal disorders: 8 (8) no. (%)
  Serious treatment-emergent: Infections and infestations: 9 (9) no. (%)
  Serious treatment-emergent: Metabolism and nutrition disorders: 2 (2) no. (%)
  Serious treatment-emergent: Nervous system disorders: 1 (1) no. (%)
  Serious treatment-emergent: Renal and urinary disorders: 10 (10) no. (%)
  Serious treatment-emergent: Respiratory, thoracic, mediastinal disorders: 3 (3) no. (%)
  Serious treatment-emergent: Urinary tract infection: 3 (3) no. (%)
  Serious treatment-emergent: Urosepsis: 2 (2) no. (%)
  Total number of patients with serious treatment-emergent adverse events: 39 (39) no. (%)
  Treatment-related Alanine aminotransferase increased, any grade: 12 (12) no. (%)
  Treatment-related Alanine aminotransferase increased, grade 1: 9 (9) no. (%)
  Treatment-related Alanine aminotransferase increased, grade 2: 2 (2) no. (%)
  Treatment-related Alanine aminotransferase increased, grade 3: 1 (1) no. (%)
  Treatment-related Alopecia, any grade: 27 (27) no. (%)
  Treatment-related Alopecia, grade 1: 21 (21) no. (%)
  Treatment-related Alopecia, grade 2: 6 (6) no. (%)
  Treatment-related Alopecia, grade 3: 0 no. (%)
  Treatment-related Asthenia, any grade: 13 (13) no. (%)
  Treatment-related Asthenia, grade 1: 2 (2) no. (%)
  Treatment-related Asthenia, grade 2: 9 (9) no. (%)
  Treatment-related Asthenia, grade 3: 2 (2) no. (%)
  Treatment-related Decreased appetite, any grade: 25 (25) no. (%)
  Treatment-related Decreased appetite, grade 1: 11 (11) no. (%)
  Treatment-related Decreased appetite, grade 2: 14 (14) no. (%)
  Treatment-related Decreased appetite, grade 3: 0 no. (%)
  Treatment-related Diarrhea, any grade: 37 (37) no. (%)
  Treatment-related Diarrhea, grade 1: 21 (21) no. (%)
  Treatment-related Diarrhea, grade 2: 12 (12) no. (%)
  Treatment-related Diarrhea, grade 3: 4 (4) no. (%)
  Treatment-related Dry eye, any grade: 19 (19) no. (%)
  Treatment-related Dry eye, grade 1: 14 (14) no. (%)
  Treatment-related Dry eye, grade 2: 4 (4) no. (%)
  Treatment-related Dry eye, grade 3: 1 (1) no. (%)
  Treatment-related Dry mouth, any grade: 43 (43) no. (%)
  Treatment-related Dry mouth, grade 1: 32 (32) no. (%)
  Treatment-related Dry mouth, grade 2: 11 (11) no. (%)
  Treatment-related Dry mouth, grade 3: 0 no. (%)
  Treatment-related Dry skin, any grade: 32 (32) no. (%)
  Treatment-related Dry skin, grade 1: 24 (24) no. (%)
  Treatment-related Dry skin, grade 2: 8 (8) no. (%)
  Treatment-related Dry skin, grade 3: 0 no. (%)
  Treatment-related Dysgeusia, any grade: 35 (35) no. (%)
  Treatment-related Dysgeusia, grade 1: 22 (22) no. (%)
  Treatment-related Dysgeusia, grade 2: 12 (12) no. (%)
  Treatment-related Dysgeusia, grade 3: 1 (1) no. (%)
  Treatment-related Fatigue, any grade: 21 (21) no. (%)
  Treatment-related Fatigue, grade 1: 8 (8) no. (%)
  Treatment-related Fatigue, grade 2: 11 (11) no. (%)
  Treatment-related Fatigue, grade 3: 2 (2) no. (%)
  Treatment-related Hand-foot syndrome, any grade: 22 (22) no. (%)
  Treatment-related Hand-foot syndrome, grade 1: 5 (5) no. (%)
  Treatment-related Hand-foot syndrome, grade 2: 12 (12) no. (%)
  Treatment-related Hand-foot syndrome, grade 3: 5 (5) no. (%)
  Treatment-related Hyperphosphatemia, any grade: 72 (73) no. (%)
  Treatment-related Hyperphosphatemia, grade 1: 49 (50) no. (%)
  Treatment-related Hyperphosphatemia, grade 2: 21 (21) no. (%)
  Treatment-related Hyperphosphatemia, grade 3: 2 (2) no. (%)
  Treatment-related Lacrimation increased, any grade: 11 (11) no. (%)
  Treatment-related Lacrimation increased, grade 1: 8 (8) no. (%)
  Treatment-related Lacrimation increased, grade 2: 3 (3) no. (%)
  Treatment-related Lacrimation increased, grade 3: 0 no. (%)
  Treatment-related Nail dystrophy, any grade: 16 (16) no. (%)
  Treatment-related Nail dystrophy, grade 1: 5 (5) no. (%)
  Treatment-related Nail dystrophy, grade 2: 5 (5) no. (%)
  Treatment-related Nail dystrophy, grade 3: 6 (6) no. (%)
  Treatment-related Onycholysis, any grade: 16 (16) no. (%)
  Treatment-related Onycholysis, grade 1: 4 (4) no. (%)
  Treatment-related Onycholysis, grade 2: 10 (10) no. (%)
  Treatment-related Onycholysis, grade 3: 2 (2) no. (%)
  Treatment-related Paronychia, any grade: 14 (14) no. (%)
  Treatment-related Paronychia, grade 1: 1 (1) no. (%)
  Treatment-related Paronychia, grade 2: 10 (10) no. (%)

Source: patent publication US12691112B2, “FGFR tyrosine kinase inhibitors for the treatment of urothelial carcinoma” (Janssen Pharmaceutica NV, priority 2019, dated 2026)
